Patent US8785439B2, “2,5,7-substituted oxazolopyrimidine derivatives” (Sanofi, priority 2010, dated 2014)

Target: T1, human Edg-1 receptor (Homo sapiens, UniProt P21453)
T1 construct: FLAG (N); expressed in transfected cells; membrane preparation
Test: GTP-γ-S assay using human Edg-1 receptors (SPA, CHO Flp-In cell membrane preparation)
Type: biochemical
Details: test compound at 10 μM; high control 10 μM S1P regarded as 100% activation; background-corrected; triplicate; read-out: % Activation (Edg-1 receptor activation in percent of the activation by 10 μM S1P)
Method in brief: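 Membranes from CHO Flp-In cells stably overexpressing N-terminally FLAG-tagged human Edg-1 were used in a scintillation-proximity GTP-γ-S binding assay to measure receptor activation by compounds.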

T1 sequence (P21453 whole entry): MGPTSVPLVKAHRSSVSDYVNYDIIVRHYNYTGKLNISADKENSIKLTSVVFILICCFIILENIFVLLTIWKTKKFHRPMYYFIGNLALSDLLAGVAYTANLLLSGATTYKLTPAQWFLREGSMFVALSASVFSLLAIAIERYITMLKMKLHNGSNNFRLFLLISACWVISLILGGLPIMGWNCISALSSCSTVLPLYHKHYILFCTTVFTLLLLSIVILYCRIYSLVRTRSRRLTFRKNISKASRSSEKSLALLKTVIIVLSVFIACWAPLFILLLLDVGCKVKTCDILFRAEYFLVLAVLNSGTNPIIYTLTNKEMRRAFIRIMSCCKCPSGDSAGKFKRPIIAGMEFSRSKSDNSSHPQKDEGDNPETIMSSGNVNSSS

SMILES | activation at 10 µM
CCCOc1nc(Oc2ccccc2F)nc2oc(-c3ccc(Cl)c(Cl)c3)nc12 [Example 15, 2-(3,4-dichloro-phenyl)-5-(2-fluoro-phenoxy)-7-propoxy-oxazolo[5,4-d]pyrimidine] | 95%
CCCOc1nc(OC2CCCCC2)nc2oc(-c3cccc(C)c3)nc12 [Example 2, 5-Cyclohexyloxy-7-propoxy-2-(3-methyl-phenyl)-oxazolo[5,4-d]pyrimidine] | 90%
CCCOc1nc(Oc2cccc(SC(F)(F)F)c2)nc2oc(-c3cc(F)ccc3Cl)nc12 [Example 68, 2-(2-chloro-5-fluoro-phenyl)-7-propoxy-5-(3-trifluoromethylsulfanyl-phenoxy)-oxazolo[5,4-d]pyrimidine] | 41%
CCCOc1nc(Oc2ccc(Cl)c(Cl)c2)nc2oc(-c3cccc(C)c3)nc12 [Example 1, 5-(3,4-Dichloro-phenoxy)-7-propoxy-2-(3-methyl-phenyl)-oxazolo[5,4-d]pyrimidine] | 62%
CCCOc1nc(N[C@H]2CCC[C@H](C)C2)nc2oc(-c3cc(F)ccc3Cl)nc12 [Example 147, [2-(2-chloro-5-fluoro-phenyl)-7-propoxy-oxazolo[5,4-d]pyrimidin-5-yl]-((1S,3S)-3-methyl-cyclohexyl)-amine] | 63%
CCCOc1nc(Sc2nccs2)nc2oc(-c3cccc(C)c3)nc12 [Example 4] | 93%
CCCOc1nc(Oc2ccc(C)nn2)nc2oc(-c3cccc(F)c3)nc12 [Example 18, 2-(3-fluoro-phenyl)-5-(6-methyl-pyridazin-3-yloxy)-7-propoxy-oxazolo[5,4-d]pyrimidine] | 42%
CCCOc1nc(OC2CCCCC2)nc2oc(-c3cccc(F)c3)nc12 [Example 62, 5-cyclohexyloxy-2-(3-fluoro-phenyl)-7-propoxy-oxazolo[5,4-d]pyrimidine] | 111%
CCCOc1nc(OC2CCC(C(F)(F)F)CC2)nc2oc(-c3cc(F)ccc3Cl)nc12 (centres unmarked) [Example 154, 2-(2-chloro-5-fluoro-phenyl)-7-propoxy-5-(4-trifluoromethyl-cyclohexyloxy)-oxazolo[5,4-d]pyrimidine] | 87%
CCCOc1nc(Oc2cccc(N(C)C)c2)nc2oc(-c3cccc(C)c3)nc12 [Example 131, dimethyl-[3-(7-propoxy-2-(3-methyl-phenyl)-oxazolo[5,4-d]pyrimidin-5-yloxy)-phenyl]-amine] | 51%
CCCOc1ccccc1Oc1nc(OCCC)c2nc(-c3cccc(C)c3)oc2n1 [Example 146, 7-propoxy-5-(2-propoxy-phenoxy)-2-(3-methyl-phenyl)-oxazolo[5,4-d]pyrimidine] | 126%
CCCOc1nc(Oc2ccc(C)c(F)c2)nc2oc(-c3cccc(C)c3)nc12 [Example 54, 5-(3-fluoro-4-methyl-phenoxy)-7-propoxy-2-(3-methyl-phenyl)-oxazolo[5,4-d]pyrimidine] | 105%
CCCOc1nc(Oc2cc(C)ccc2Cl)nc2oc(-c3cccc(C)c3)nc12 [Example 137, 5-(2-chloro-5-methyl-phenoxy)-7-propoxy-2-(3-methyl-phenyl)-oxazolo[5,4-d]pyrimidine] | 89%
CCCOc1nc(Oc2cc(F)cc(F)c2Cl)nc2oc(-c3cccc(C)c3)nc12 [Example 100, 5-(2-chloro-3,5-difluoro-phenoxy)-7-propoxy-2-(3-methyl-phenyl)-oxazolo[5,4-d]pyrimidine] | 108%
CCCOc1nc(Oc2cccnc2)nc2oc(-c3cccc(OC)c3)nc12 [Example 41, 2-(3-methoxy-phenyl)-7-propoxy-5-(pyridin-3-yloxy)-oxazolo[5,4-d]pyrimidine] | 102%
CCCOc1nc(Oc2ccccn2)nc2oc(-c3cccc(C)c3)nc12 [Example 76, 7-propoxy-5-(pyridin-2-yloxy)-2-(3-methyl-phenyl)-oxazolo[5,4-d]pyrimidine] | 81%
CCCOc1nc(Oc2ccc(OC)cc2F)nc2oc(-c3cccc(C)c3)nc12 [Example 75, 5-(2-fluoro-4-methoxy-phenoxy)-7-propoxy-2-(3-methyl-phenyl)-oxazolo[5,4-d]pyrimidine] | 72%
CCCOc1nc(Oc2cc(F)ccc2C)nc2oc(-c3cccc(C)c3)nc12 [Example 50, 5-(5-fluoro-2-methyl-phenoxy)-7-propoxy-2-(3-methyl-phenyl)-oxazolo[5,4-d]pyrimidine] | 107%
CCCOc1nc(OCC2COC(C)(C)O2)nc2oc(-c3ccc(Cl)c(Cl)c3)nc12 (centres unmarked) [Example 45, 2-(3,4-dichloro-phenyl)-5-(2,2-dimethyl-[1,3]dioxolan-4-ylmethoxy)-7-propoxy-oxazolo[5,4-d]pyrimidine] | 74%
COc1c(C)cc(-c2nc3c(OC4COC4)nc(Oc4ccccc4F)nc3o2)cc1C [Example 8, 5-(2-Fluoro-phenoxy)-2-(4-methoxy-3,5-dimethyl-phenyl)-7-(oxetan-3-yloxy)-oxazolo[5,4-d]pyrimidine] | 124%

More lines, now with the values ahead:

activation at 10 µM | SMILES
81% | CCOc1nc(Oc2cccc(S(N)(=O)=O)c2)nc2oc(-c3cc(F)ccc3Cl)nc12 [Example 21, 3-[2-(2-chloro-5-fluoro-phenyl)-7-ethoxy-oxazolo[5,4-d]pyrimidin-5-yloxy]-benzenesulfonamide]
105% | Cc1cc(Oc2nc(OCC3CC3)c3nc(-c4cc(F)ccc4Cl)oc3n2)n(C)n1 [Example 11, 2-(2-chloro-5-fluoro-phenyl)-7-cyclopropylmethoxy-5-(2,5-dimethyl-2H-pyrazol-3-yloxy)-oxazolo[5,4-d]pyrimidine]
130% | Cc1cc(Oc2nc(OCC3CC3)c3nc(-c4cccc(F)c4)oc3n2)n(C)n1 [Example 102, 7-cyclopropylmethoxy-5-(2,5-dimethyl-2H-pyrazol-3-yloxy)-2-(3-fluoro-phenyl)-oxazolo[5,4-d]pyrimidine]
46% | CCCOc1nc(OC2CCCCC2)nc2oc(-c3cc(F)ccc3Cl)nc12 [Example 80, 2-(2-chloro-5-fluoro-phenyl)-5-cyclohexyloxy-7-propoxy-oxazolo[5,4-d]pyrimidine]
95% | CCCOc1nc(Oc2cncc(F)c2)nc2oc(-c3cc(F)ccc3Cl)nc12 [Example 72, 2-(2-chloro-5-fluoro-phenyl)-5-(5-fluoro-pyridin-3-yloxy)-7-propoxy-oxazolo[5,4-d]pyrimidine]
107% | CCOc1nc(Oc2cc(C)nn2C)nc2oc(-c3cc(F)ccc3Cl)nc12 [Example 10, 2-(2-chloro-5-fluoro-phenyl)-5-(2,5-dimethyl-2H-pyrazol-3-yloxy)-7-ethoxy-oxazolo[5,4-d]pyrimidine]
98% | Fc1cncc(Oc2nc(OCC3CC3)c3nc(-c4ccc(Cl)c(Cl)c4)oc3n2)c1 [Example 108, 7-cyclopropylmethoxy-2-(3,4-dichloro-phenyl)-5-(5-fluoro-pyridin-3-yloxy)-oxazolo[5,4-d]pyrimidine]
60% | CCCOc1nc(Oc2cccc3c2OC(C)(C)C3)nc2oc(-c3cc(F)ccc3Cl)nc12 [Example 84, 2-(2-chloro-5-fluoro-phenyl)-5-(2,2-dimethyl-2,3-dihydro-benzofuran-7-yloxy)-7-propoxy-oxazolo[5,4-d]pyrimidine]
117% | Clc1ccc(-c2nc3c(OCC4CC4)nc(Oc4cccnc4)nc3o2)cc1Cl [Example 106, 7-cyclopropylmethoxy-2-(3,4-dichloro-phenyl)-5-(pyridin-3-yloxy)-oxazolo[5,4-d]pyrimidine]
